Several values for one entry are separate records, joined by “and”; a condition that tells them apart may be missing. Equal entries are not always repeated. Structures can show the parent of a compound that is named as a salt.
molecular target: T1, human ETA receptors (Homo sapiens, UniProt P25101); assay: Endothelin binding inhibition, Binding Test #1: competition with 125I-ET-1 for ETA receptors on TE 671 cell membranes; details: incubation at 4° C. (values without †)
T1 construct: endogenous in cells; host or cells: TE 671 cells (ATCC HTB 139), membrane preparation
T1 sequence (P25101 21-427): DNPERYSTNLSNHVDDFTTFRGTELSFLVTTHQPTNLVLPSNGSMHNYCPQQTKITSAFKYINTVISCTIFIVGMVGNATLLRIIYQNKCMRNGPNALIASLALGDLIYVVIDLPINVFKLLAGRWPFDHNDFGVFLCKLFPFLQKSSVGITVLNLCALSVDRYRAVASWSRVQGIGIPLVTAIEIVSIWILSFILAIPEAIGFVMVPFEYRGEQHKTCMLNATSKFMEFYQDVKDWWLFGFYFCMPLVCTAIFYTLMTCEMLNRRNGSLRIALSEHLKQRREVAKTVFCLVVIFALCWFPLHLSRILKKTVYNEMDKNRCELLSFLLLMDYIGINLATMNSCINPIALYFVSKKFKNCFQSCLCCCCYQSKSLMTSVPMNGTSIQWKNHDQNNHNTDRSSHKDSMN
Experimental: (§1) Cells from multiple flasks were collected by scraping, pooled and centrifuged for 10 min at 190×g. The cells were resuspended in phosphate buffered saline (PBS) containing 10 mM EDTA using a Tenbroeck homogenizer. The suspension was centrifuged at 4° C. at 57,800×g for 15 min, the pellet was resuspended in 5 mL of buffer A (5 mM HEPES buffer, pH 7.4 containing aprotinin (100 KIU/mL)) and then frozen and thawed once. 5 mL of Buffer B (5 mM HEPES Buffer, pH 7.4 containing 10 mM MnCl2 and 0.001% deoxyribonuclease Type 1) was added, the suspension mixed by inversion and then incubated at 37° C. for 30 minutes. The mixture was centrifuged at 57,800×g as described above, the pellet washed twice with buffer A and then resuspended in buffer C (30 mM HEPES buffer, pH 7.4 containing aprotinin (100 KIU/mL) to give a final protein concentration of 2 mg/mL and stored at −70° C. until use.
The membrane suspension (50 μL), containing up to 8 μg of membrane protein, was added to each of (A), (B), or (C). […] Alternatively, the incubation was conducted at 24° C.
The supernatant, containing unbound radioactivity, was decanted and the pellet counted on a Genesys multiwell gamma counter. The degree of inhibition of binding (D) was calculated according to the following equation: [formula]
Each test was generally performed in triplicate.

**Q.** With `CCc1ccc(-c2ccsc2S(=O)(=O)Nc2onc(C)c2Br)cc1` [N-(4-bromo-3-methyl-5-isoxazolyl)-3-(4-ethylphenyl)thiophene-2-sulfonamide] as the molecule, how does the IC50 read?
**A.** 0.184 µM

same assay, conditions: incubation at 24° C. (values marked †)

**Q.** Which IC50 does the source give for `Cc1noc(NS(=O)(=O)c2ccsc2C/C=C/c2ccc3c(c2)OCO3)c1Br` [N-(4-bromo-3-methyl-5-isoxazolyl)-2-[trans-(3,4-methylenedioxy)cinnamyl]thiophene-3-sulfonamide] here?
**A.** 0.14 µM

**Q.** `Cc1cc(C)c(OC(=O)c2sccc2S(=O)(=O)Nc2onc(C)c2C)c(C)c1` [N-(3,4-dimethyl-5-isoxazolyl)-2-[(2,4,6-trimethylphenoxy)carbonyl]thiophene-3-sulfonamide] was tested. Which IC50 did it give?
**A.** 0.537 µM

**Q.** How did the IC50 turn out when `COC(=O)c1cc(C)c(NC(=O)c2sccc2S(=O)(=O)Nc2onc(C)c2Cl)c(C)c1` [N-(4-chloro-3-methyl-5-isoxazolyl)-2-[(4-methoxycarbonyl-2,6-dimethyl)phenylaminocarbonyl]thiophene-3-sulfonamide] was run?
**A.** 0.000266 µM

**Q.** With `Cc1cc2c(cc1C(CC(=O)O)C(=O)c1sccc1S(=O)(=O)Nc1onc(C)c1Cl)OCO2` (stereo not drawn) [N-(4-chloro-3-methyl-5-isoxazolyl)-2-(α-carboxylmethyl-2-methyl-4,5-(methylenedioxy)phenylacetyl)thiophene-3-sulfonamide] as the molecule, how does the IC50 read?
**A.** 0.0811 µM

**Q.** `Cc1cc2c(cc1C(C)C(=O)c1sccc1S(=O)(=O)Nc1onc(C)c1Cl)OCO2` (stereo not drawn) [N-(4-chloro-3-methyl-5-isoxazolyl)-2-(α-methyl-2-methyl-4,5-(methylenedioxy)phenylacetyl)thiophene-3-sulfonamide] was tested. Which IC50 did it give?
**A.** 0.0853 µM

**Q.** Which IC50 does the source give for `Cc1nnc(NC(=O)c2sccc2S(=O)(=O)Nc2onc(C)c2Cl)s1` [N-(4-chloro-3-methyl-5-isoxazolyl)-2-[(2-methyl-1,3,4-thiadiazol-5-yl)aminocarbonyl]thiophene-3-sulfonamide] here?
**A.** 0.13 µM

**Q.** With `COC(=O)c1cc(OC)c(OC)cc1NC(=O)c1sccc1S(=O)(=O)Nc1onc(C)c1Cl` [N-(4-chloro-3-methyl-5-isoxazolyl)-2-[(4,5-dimethoxy-2-methoxycarbonylphenyl)aminocarbonyl]thiophene-3-sulfonamide] as the molecule, how does the IC50 read?
**A.** 0.55 µM

**Q.** Which IC50 does the source give for `Cc1noc(NS(=O)(=O)c2ccsc2C(N)=O)c1Br` [N-(4-bromo-3-methyl-5-isoxazolyl)-2-(aminocarbonyl)thiophene-3-sulfonamide] here?
**A.** 0.84 µM

**Q.** For `Cc1noc(NS(=O)(=O)c2ccsc2C(=O)OC2CCOCC2)c1Cl` [N-(4-chloro-3-methyl-5-isoxazolyl)-2-[(4-oxacyclohexyl)oxycarbonyl]thiophene-3-sulfonamide], which IC50 is on record?
**A.** 1.37 µM

**Q.** With `Cc1noc(NS(=O)(=O)c2ccsc2C(=O)Nc2cc3c(cc2C(=O)O)OCO3)c1Cl` [N-(4-chloro-3-methyl-5-isoxazolyl)2-{[2-carboxyl-4,5-(methylenedioxy)phenyl]aminocarbonyl}thiophene-3-sulfonamide] as the molecule, how does the IC50 read?
**A.** 1.43 µM

**Q.** How did the IC50 turn out when `Cc1ccc(NC(=O)c2sccc2S(=O)(=O)Nc2onc(C)c2Cl)c(O)c1` [N-(4-chloro-3-methyl-5-isoxazolyl)-2-[2-hydroxy-4-methylphenyl)aminocarbonyl]thiophene-3-sulfonamide] was run?
**A.** 0.006 µM

**Q.** How did the IC50 turn out when `CC(=O)c1cc2c(cc1NC(=O)c1sccc1S(=O)(=O)Nc1onc(C)c1C)OCO2` [N-(3,4-dimethyl-5-isoxazolyl)-2-{[2-acetyl-4,5-(methylenedioxy)phenyl]aminocarbonyl}thiophene-3-sulfonamide] was run?
**A.** 0.032 µM

**Q.** How did the IC50 turn out when `COc1ccc(OC(=O)c2sccc2S(=O)(=O)Nc2onc(C)c2C)cc1` [N-(3,4-dimethyl-5-isoxazolyl)-2-[(4-methoxylphenoxy)carbonyl]thiophene-3-sulfonamide] was run?
**A.** 5.88 µM and 2.5 µM

**Q.** `Cc1cc(C)c(NC(=O)c2sccc2S(=O)(=O)Nc2onc(C)c2Cl)c(C)c1CN(C)C` [N-(4-chloro-3-methyl-5-isoxazolyl)-2-(3-dimethylaminomethyl-2,4,6-trimethylphenylaminocarbonyl)thiophene-3-sulfonamide, trifluoroacetic acid salt] was tested. Which IC50 did it give?
**A.** 0.0134 µM

**Q.** How did the IC50 turn out when `COc1cccc(-c2ccsc2S(=O)(=O)Nc2onc(C)c2Br)c1` [N-(4-bromo-3-methyl-5-isoxazolyl)-3-(3-methoxyphenyl)thiophene-2-sulfonamide] was run?
**A.** 0.334 µM

**Q.** With `Cc1noc(NS(=O)(=O)c2ccsc2CCc2ccc3c(c2)OCO3)c1Br` [N-(4-bromo-3-methyl-5-isoxazolyl)-2-[(3,4-methylenedioxy)phenethyl]thiophene-3-sulfonamide] as the molecule, how does the IC50 read?
**A.** 0.21 µM

molecular target: T2, human ETB receptor (Homo sapiens, UniProt P24530); assay: Endothelin binding inhibition, Binding Test #2: competition with 125I-ET-1 for ETB receptors on transfected COS7 cell membranes; details: incubation at 24° C. (values marked †)
T2 construct: expressed in transfected cells; host or cells: COS7 cells
T2 sequence (P24530 27-442): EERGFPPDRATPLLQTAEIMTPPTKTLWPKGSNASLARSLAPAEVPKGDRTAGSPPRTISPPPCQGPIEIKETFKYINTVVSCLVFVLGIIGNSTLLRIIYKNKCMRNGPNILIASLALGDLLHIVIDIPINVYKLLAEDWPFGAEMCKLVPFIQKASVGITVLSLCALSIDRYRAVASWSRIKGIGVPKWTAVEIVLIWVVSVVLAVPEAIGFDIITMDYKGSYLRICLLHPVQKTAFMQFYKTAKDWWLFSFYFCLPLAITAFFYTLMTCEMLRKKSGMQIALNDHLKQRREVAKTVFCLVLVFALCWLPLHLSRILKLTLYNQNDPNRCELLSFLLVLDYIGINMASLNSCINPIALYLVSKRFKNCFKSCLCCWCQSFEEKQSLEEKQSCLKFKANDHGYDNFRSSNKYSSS
From the text: Compounds that are potential endothelin antagonists are identified by testing their ability to compete with ^125I-labeled ET-1 for binding to human ETA receptors or ETB receptors present on isolated cell membranes. The effectiveness of the test compound as an antagonist or agonist of the biological tissue response of endothelin can also be assessed by measuring the effect on endothelin induced contraction of isolated rat thoracic aortic rings. The ability of the compounds to act as antagonists or agonists for ETB receptors can be assess by testing the ability of the compounds are to inhibit endothelin-1 induced prostacyclin release from cultured bovine aortic endothelial cells.
COS7 cells were transfected with DNA encoding the ETB receptor, The resulting cells, which express the human ETB receptor, were grown to confluence in T-150 flasks. Membrane was prepared as described above. The binding assay was performed as described above using the membrane preparation diluted with binding buffer to a concentration of 1 μg/50 μL.
as §1, with “Briefly, the COS7 cells, described above, that had been transfected with DNA encoding the ETB receptor and express the human ETB receptor on their surfaces were grown to confluence in T-175 flasks. Cells” for “Cells”, “C.” for “C. at”, “once. Five” for “once. 5”, “2 mg/mL.” for “2 mg/mL and stored at −70° C. until use.”
The binding assay was performed as described above using the membrane preparation diluted to give 1 μg/50 μL of binding buffer.

**Q.** For `Cc1noc(NS(=O)(=O)c2ccsc2C/C=C/c2ccc3c(c2)OCO3)c1Br` [N-(4-bromo-3-methyl-5-isoxazolyl)-2-[trans-(3,4-methylenedioxy)cinnamyl]thiophene-3-sulfonamide], which IC50 is on record?
**A.** 1.4 µM

**Q.** Which IC50 does the source give for `CCc1ccc(-c2ccsc2S(=O)(=O)Nc2onc(C)c2Br)cc1` [N-(4-bromo-3-methyl-5-isoxazolyl)-3-(4-ethylphenyl)thiophene-2-sulfonamide] here?
**A.** 43.9 µM

**Q.** `COC(=O)c1cc(C)c(NC(=O)c2sccc2S(=O)(=O)Nc2onc(C)c2Cl)c(C)c1` [N-(4-chloro-3-methyl-5-isoxazolyl)-2-[(4-methoxycarbonyl-2,6-dimethyl)phenylaminocarbonyl]thiophene-3-sulfonamide] was tested. Which IC50 did it give?
**A.** 9.78 µM

**Q.** For `Cc1noc(NS(=O)(=O)c2ccsc2C(=O)c2ccc3c(c2)OCO3)c1Br` [N-(4-bromo-3-methyl-5-isoxazolyl)-2-[(3,4-methylenedioxy)benzoyl]thiophene-3-sulfonamide], which IC50 is on record?
**A.** 15 µM

**Q.** With `Cc1cc(C)c(NC(=O)c2sccc2S(=O)(=O)Nc2onc(C)c2Cl)c(C(N)=O)c1` [N-(4-chloro-3-methyl-5-isoxazolyl)-2-(2-carbamoyl-4,6-dimethylphenylaminocarbonyl)thiophene-3-sulfonamide] as the molecule, how does the IC50 read?
**A.** 11.9 µM

**Q.** With `Cc1noc(NS(=O)(=O)c2ccsc2COc2ccc3c(c2)OCO3)c1Br` [N-(4-bromo-3-methyl-5-isoxazolyl)-2-{[3,4-(methylenedioxy)phenoxy]methyl}thiophene-3-sulfonamide] as the molecule, how does the IC50 read?
**A.** 6.61 µM

**Q.** `Cc1cc(C)c(CNC(=O)c2sccc2S(=O)(=O)Nc2onc(C)c2Cl)c(C)c1` [N-(4-chloro-3-methyl-5-isoxazolyl)-2-(2,4,6-trimethylbenzylaminocarbonyl)thiophene-3-sulfonamide] was tested. Which IC50 did it give?
**A.** 69.2 µM

**Q.** With `CC(=O)c1cc2c(cc1NC(=O)c1sccc1S(=O)(=O)Nc1onc(C)c1Cl)OCO2` [N-(4-chloro-3-methyl-5-isoxazolyl)2-{[2-acetyl-4,5-(methylenedioxy)phenyl]aminocarbonyl}thiophene-3-sulfonamide] as the molecule, how does the IC50 read?
**A.** 31.6 µM

**Q.** Which IC50 does the source give for `Cc1ccc(OC(=O)c2sccc2S(=O)(=O)Nc2onc(C)c2Br)cc1` [N-(4-bromo-3-methyl-5-isoxazolyl)-2-[(4-methylphenoxy)carbonyl]thiophene-3-sulfonamide] here?
**A.** 9.7 µM

**Q.** With `Cc1noc(NS(=O)(=O)c2ccsc2C(=O)Oc2ccc3c(c2)OCO3)c1C` [N-(3,4-dimethyl-5-isoxazolyl)-2-[3,4-(methylenedioxy)phenoxycarbonyl]thiophene-3-sulfonamide] as the molecule, how does the IC50 read?
**A.** > 50 µM

same assay, conditions: read-out: ETB % inhibition @ 100 μM, @ 100 μM; incubation at 24° C.

**Q.** Which inhibition at 100 µM does the source give for `Cc1cc(C)c(OC(=O)c2sccc2S(=O)(=O)Nc2onc(C)c2C)c(C)c1` [N-(3,4-dimethyl-5-isoxazolyl)-2-[(2,4,6-trimethylphenoxy)carbonyl]thiophene-3-sulfonamide] here?
**A.** 8%

From patent US6632829B2, “Sulfonamides and derivatives thereof that modulate the activity of endothelin” (Texas Biotechnology Corp., priority 1996, dated 2003)
